Data reported in patent publication EP0420121A1, “Antitumor composition” (Senju Pharmaceutical Co., Ltd., priority 1989, dated 1991).
“And” between values parts separate entries of the source, which are not always exact repeats. Identical values can stand only once.

Tested on: Sarcoma 180 cells
Experiment: Pharmacological activity testing in mice with sarcoma 180
Type: in vivo, ddy strain male mice
Details: 100 mg/kg intraperitoneally once daily for 11 days
Source text: Pharmacological activity testing in mice with sarcoma 180
Sarcoma 180 cells (1.16 X 10⁷ cells/animal) were transplanted into groups of 8 ddy strain male mice (5 to 6 weeks of age) subcutaneously at the back on the right side of the body. In one group, the compound S- (α ,β -dicarboxyethyl)glutathione (hereinafter referred to as "DCE-GS" for short) in the forms of a 1.0% (w/v) injectable solution (pH 6.5; isotonized with sodium chloride) was intraperitoneally administered to the animals in a volume corresponding to the dose of 100 mg/kg once daily for 11 days. The control group was intraperitoneally given the same volume of physiological saline once daily for the same period. On day 12, the animals were sacrificed, the tumor was excised from each animal and weighed.

SMILES: N[C@@H](CCC(=O)N[C@@H](CSC(CC(=O)O)C(=O)O)C(=O)NCC(=O)O)C(=O)O (stereo partly drawn) [DCE-GS, S-(α ,β -Dicarboxyethyl)glutathione]
- Tumor growth inhibition (day 12, versus physiological saline group): Tumor growth inhibition = (3.45 - 1.79)/3.45 X 100 = 48.1%
- Tumor weights (Mean) (sarcoma 180 transplanted subcutaneously, day 12, mean of 8 mice, physiological saline group 3.45± 0.42): 1.79 ± 0.14 g
- Tumor weights (individual animals) (sarcoma 180 transplanted subcutaneously, tumor excised and weighed on day 12, individual No. 1-8, 100 mg/kg): 2.48 g and 1.92 g and 2.09 g and 1.47 g and 1.95 g and 1.11 g and 1.62 g and 1.69 g
